Laboratory results: US11622970B2, “BCL-2 inhibitors and their use as pharmaceuticals” (PRELUDE THERAPEUTICS INCORPORATED, priority 2020, dated 2023)

The compounds below were run against BCL-2 recombinant protein (Homo sapiens, UniProt P10415) (assay: Cell free Bcl-2:Bak affinity assay (Bcl-2 Bak), HTRF competition of FAM-Bak peptide). Conditions: 10-concentration IC50 mode, 4 nM BCL-2 recombinant protein, 100 nM FAM-Bak, read-out: potency (IC50).
Assay type: binding
Procedure, shortened: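 Compounds in 10-point 3-fold dilution preincubated 10 min at RT with 4 nM GST-BCL-2 (20 mM K phosphate pH 7.5, 50 mM NaCl, 1 mM EDTA, 0.005% Triton X-100), then 100 nM FAM-Bak 10 min, anti-GST-Tb added, 60 min RT dark. HTRF read; % inhibition vs DMSO and positive control, IC50 from curve fit.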

Chain of BCL-2 recombinant protein (P10415 whole entry): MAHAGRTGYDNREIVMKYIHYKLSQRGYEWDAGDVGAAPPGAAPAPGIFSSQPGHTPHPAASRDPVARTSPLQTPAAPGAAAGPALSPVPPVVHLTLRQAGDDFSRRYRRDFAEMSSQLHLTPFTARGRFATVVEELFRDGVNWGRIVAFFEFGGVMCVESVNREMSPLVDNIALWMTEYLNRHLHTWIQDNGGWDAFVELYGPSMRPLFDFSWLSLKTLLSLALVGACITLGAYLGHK

Row | IC50 | SMILES
1 | 100 to 1000 nM | CC1(C)CCC(CN2CCN(c3ccc(S(=O)(=O)NC(=O)c4ccc(CN5CCOCC5)c([N+](=O)[O-])c4)c(Oc4cnc5[nH]ccc5c4)c3)CC2)=C(c2ccc(Cl)cc2)C1 [Example 90, N-[4-[4-[[2-(4-chlorophenyl)-4,4-dimethylcyclohexen-1-yl]methyl]piperazin-1-yl]-2-(1H-pyrrolo[2,3-b]pyridin-5-yloxy)phenyl]sulfonyl-4-(morpholin-4-ylmethyl)-3-nitrobenzamide]
2 | 10 to 100 nM | CC1(C)CCC(CN2CCN(c3ccc(S(=O)(=O)NC(=O)c4ccc(CNc5ccc(Cl)cc5)c([N+](=O)[O-])c4)c(Oc4cnc5[nH]ccc5c4)c3)CC2)=C(c2ccc(Cl)cc2)C1 [Example 91, 4-[(4-chloroanilino)methyl]-N-[4-[4-[[2-(4-chlorophenyl)-4,4-dimethylcyclohexen-1-yl]methyl]piperazin-1-yl]-2-(1H-pyrrolo[2,3-b]pyridin-5-yloxy)phenyl]sulfonyl-3-nitrobenzamide]
3 | 100 to 1000 nM | CC1(C)CCC(CN2CCN(c3ccc(S(=O)(=O)NC(=O)c4ccc5ccsc5n4)c(Oc4cnc5[nH]ccc5c4)c3)CC2)=C(c2ccc(Cl)cc2)C1 [Example 92, N-[4-[4-[[2-(4-chlorophenyl)-4,4-dimethylcyclohexen-1-yl]methyl]piperazin-1-yl]-2-(1H-pyrrolo[2,3-b]pyridin-5-yloxy)phenyl]sulfonylthieno[2,3-b]pyridine-6-carboxamide]
4 | 10 to 100 nM | CC1(C)CCC(CN2CCN(c3ccc(S(=O)(=O)NC(=O)c4ccnc5sccc45)c(Oc4cnc5[nH]ccc5c4)c3)CC2)=C(c2ccc(Cl)cc2)C1 [Example 93, N-[4-[4-[[2-(4-chlorophenyl)-4,4-dimethylcyclohexen-1-yl]methyl]piperazin-1-yl]-2-(1H-pyrrolo[2,3-b]pyridin-5-yloxy)phenyl]sulfonylthieno[2,3-b]pyridine-4-carboxamide]
5 | 100 to 1000 nM | CC1(C)CCC(CN2CCN(c3ccc(S(=O)(=O)NC(=O)c4ccc([N+](=O)[O-])c(COc5ccc(Cl)cc5)c4)c(Oc4cnc5[nH]ccc5c4)c3)CC2)=C(c2ccc(Cl)cc2)C1 [Example 95, 3-[(4-Chlorophenoxy)methyl]-N-[4-[4-[[2-(4-chlorophenyl)-4,4-dimethylcyclohexen-1-yl]methyl]piperazin-1-yl]-2-(1H-pyrrolo[2,3-b]pyridin-5-yloxy)phenyl]sulfonyl-4-nitrobenzamide]
6 | 10 to 100 nM | CC1(C)CCC(CN2CCN(c3ccc(S(=O)(=O)NC(=O)c4ccc(CNC5CCOCC5)c([N+](=O)[O-])c4)c(Oc4cnc5[nH]ccc5c4)c3)CC2)=C(c2ccc(Cl)cc2)C1 [Example 96, N-[4-[4-[[2-(4-chlorophenyl)-4,4-dimethylcyclohexen-1-yl]methyl]piperazin-1-yl]-2-(1H-pyrrolo[2,3-b]pyridin-5-yloxy)phenyl]sulfonyl-3-nitro-4-[(oxan-4-ylamino)methyl]benzamide]
7 | > 1000 nM | Cc1cc(S(C)(=O)=O)cc(C(=O)NS(=O)(=O)c2ccc(N3CCN(CC4=C(c5ccc(Cl)cc5)CC(C)(C)CC4)CC3)cc2Oc2cnc3[nH]ccc3c2)n1 [Example 97, N-[4-[4-[[2-(4-Chlorophenyl)-4,4-dimethylcyclohexen-1-yl]methyl]piperazin-1-yl]-2-(1H-pyrrolo[2,3-b]pyridin-5-yloxy)phenyl]sulfonyl-6-methyl-4-methylsulfonylpyridine-2-carboxamide]
8 | 10 to 100 nM | CNc1c([N+](=O)[O-])cc(C(=O)NS(=O)(=O)c2ccc(N3CCN(CC4=C(c5ccc(Cl)cc5)CC(C)(C)CC4)CC3)cc2Oc2cnc3[nH]ccc3c2)c(Cl)c1C [Example 98, 2-chloro-N-[4-[4-[[2-(4-chlorophenyl)-4,4-dimethylcyclohexen-1-yl]methyl]piperazin-1-yl]-2-(1H-pyrrolo[2,3-b]pyridin-5-yloxy)phenyl]sulfonyl-3-methyl-4-(methylamino)-5-nitrobenzamide]
9 | 10 to 100 nM | CCNc1c([N+](=O)[O-])cc(C(=O)NS(=O)(=O)c2ccc(N3CCN(CC4=C(c5ccc(Cl)cc5)CC(C)(C)CC4)CC3)cc2Oc2cnc3[nH]ccc3c2)c(Cl)c1C [Example 99, 2-chloro-N-[4-[4-[[2-(4-chlorophenyl)-4,4-dimethylcyclohexen-1-yl]methyl]piperazin-1-yl]-2-(1H-pyrrolo[2,3-b]pyridin-5-yloxy)phenyl]sulfonyl-4-(ethylamino)-3-methyl-5-nitrobenzamide]
10 | < 10 nM | CC1(C)CCC(CN2CCN(c3ccc(S(=O)(=O)NC(=O)c4ccc(NCC5CCOCC5)c([N+](=O)[O-])c4)c(Oc4cnc5[nH]ccc5c4)c3)CC2)=C(c2ccc(Cl)cc2)C1 [Example 100, N-[4-[4-[[2-(4-chlorophenyl)-4,4-dimethylcyclohexen-1-yl]methyl]piperazin-1-yl]-2-(1H-pyrrolo[2,3-b]pyridin-5-yloxy)phenyl]sulfonyl-3-nitro-4-(oxan-4-ylmethylamino)benzamide]
11 | 10 to 100 nM | COc1c([N+](=O)[O-])cc(C(=O)NS(=O)(=O)c2ccc(N3CCN(CC4=C(c5ccc(Cl)cc5)CC(C)(C)CC4)CC3)cc2Oc2cnc3[nH]ccc3c2)c(Cl)c1C [Example 101, 2-chloro-N-[4-[4-[[2-(4-chlorophenyl)-4,4-dimethylcyclohexen-1-yl]methyl]piperazin-1-yl]-2-(1H-pyrrolo[2,3-b]pyridin-5-yloxy)phenyl]sulfonyl-4-methoxy-3-methyl-5-nitrobenzamide]
12 | 100 to 1000 nM | CCOc1c([N+](=O)[O-])cc(C(=O)NS(=O)(=O)c2ccc(N3CCN(CC4=C(c5ccc(Cl)cc5)CC(C)(C)CC4)CC3)cc2Oc2cnc3[nH]ccc3c2)c(Cl)c1C [Example 102, 2-chloro-N-[4-[4-[[2-(4-chlorophenyl)-4,4-dimethylcyclohexen-1-yl]methyl]piperazin-1-yl]-2-(1H-pyrrolo[2,3-b]pyridin-5-yloxy)phenyl]sulfonyl-4-ethoxy-3-methyl-5-nitrobenzamide]
13 | 10 to 100 nM | Cc1c(Cl)c(C(=O)NS(=O)(=O)c2ccc(N3CCN(CC4=C(c5ccc(Cl)cc5)CC(C)(C)CC4)CC3)cc2Oc2cnc3[nH]ccc3c2)cc([N+](=O)[O-])c1OCC1COC1 [Example 103, 2-chloro-N-[4-[4-[[2-(4-chlorophenyl)-4,4-dimethylcyclohexen-1-yl]methyl]piperazin-1-yl]-2-(1H-pyrrolo[2,3-b]pyridin-5-yloxy)phenyl]sulfonyl-3-methyl-5-nitro-4-(oxetan-3-ylmethoxy)benzamide]
14 | < 10 nM | Cc1c(Cl)c(C(=O)NS(=O)(=O)c2ccc(N3CCN(CC4=C(c5ccc(Cl)cc5)CC(C)(C)CC4)CC3)cc2Oc2cnc3[nH]ccc3c2)cc([N+](=O)[O-])c1OCC1CCOC1 (stereo not drawn) [Example 106, 2-chloro-N-[4-[4-[[2-(4-chlorophenyl)-4,4-dimethylcyclohexen-1-yl]methyl]piperazin-1-yl]-2-(1H-pyrrolo[2,3-b]pyridin-5-yloxy)phenyl]sulfonyl-3-methyl-5-nitro-4-(oxolan-3-ylmethoxy)benzamide]
15 | < 10 nM | Cc1c(Cl)c(C(=O)NS(=O)(=O)c2ccc(N3CCN(CC4=C(c5ccc(Cl)cc5)CC(C)(C)CC4)CC3)cc2Oc2cnc3[nH]ccc3c2)cc([N+](=O)[O-])c1OCC1CCCO1 (stereo not drawn) [Example 107, 2-chloro-N-[4-[4-[[2-(4-chlorophenyl)-4,4-dimethylcyclohexen-1-yl]methyl]piperazin-1-yl]-2-(1H-pyrrolo[2,3-b]pyridin-5-yloxy)phenyl]sulfonyl-3-methyl-5-nitro-4-(oxolan-2-ylmethoxy)benzamide]
